ChEMBL document CHEMBL5726751, “Substituted spirocyclic inhibitors of autotaxin” (2019)
pIC50: −log10 of the molar value.

Biological target: Autotaxin (Homo sapiens, UniProt Q13822)
Experiment: The following assays and their respective methods are carried out with the compounds according to the present invention. […] Those skilled in the art will appreciate that a variety of assay formats may be used to determine the activity of the compounds of this invention.Autotaxin LPC Cascade Assay:Assay Buffer:100 mM Tris-HCl, pH=9500 mM NaCl5 mM MgCl25 mM CaCl20.05% Triton X 100Reagents:Enzyme Source Stock conc Working conc. Final conc. Autotaxin X-Chem 4.6 μM 20 nM 5 nM LPC Sigma L5254 8 mM in assay buffer 400 μM 100 μM Choline Oxidase Sigma C5896 50 U/mL in water 0.8 U/mL 0.1 U/mL HRP Sigma P8375 1000 U/mL in water 8 U/mL 1 U/mL Ampliflu Red Sigma 90101 100 mM in DMSO 400 μM 50 μM.
Assay type: organism-based

Row | SMILES | pIC50
1 | Cc1cccc(C(=O)N(C)[C@@H](C(=O)N2CCC3(CC2)C(=O)N(C)CN3c2ccccc2)C(C)C)c1 | < 6.00
2 | CN1C(=O)N(c2ccc3[nH]ncc3c2)C2(CCN(C(=O)C3(NC(=O)c4cc(C(F)(F)F)ccc4F)COC3)CC2)C1=O | < 6.00
3 | CC(C)[C@@H](NC(=O)c1cc(C(F)(F)F)ccc1F)C(=O)N1CCC2(CC1)C(=O)N(C)C(=O)N2c1ccc(OCCN(C)C)cc1 | < 6.00
4 | CC(C)[C@@H](NC(=O)c1ccc(C#N)c(Cl)c1)C(=O)N1CCC2(CC1)C(=O)N(C)CN2c1ccccc1 | < 6.00
5 | Cc1cccc(C(=O)N[C@@H](C(=O)N2CCC3(CC2)C(=O)N(C)CN3c2cccc(C#N)c2)C(C)C)c1F | < 6.00
